The series in a line: recombinant UMI read abundance after kanamycin selection (control-corrected) (log10(CPM+1)); higher = more efficient recombination; extreme values may be limits of the assay; sequences stand for … in AGTGCAGAGAAAATCGGCCAGTTTTCTCTGCCTGCAGTCCGCATGCCGTGGGACCCCTTGGGTTCTAACCTGTTGCCTAGATTTATGCAGCGGACTGCCTTTCTCCCAAAGTGATAAACCGG…AGGTTGGTTTCACT; site = the 11-nt donor. The method, boiled down: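 In a pooled Escherichia coli screen for the IS621 bridge recombinase, donor and donor-binding-loop pairs were each placed with a 12-nt UMI on a plasmid bearing a promoterless kanamycin gene. This library was co-electroporated with a target plasmid encoding a fixed target and T7-inducible recombinase, and cells were plated either on IPTG (0.07 mM) plus kanamycin or without selection, in two replicates each. Recombinant UMIs were PCR-amplified across the donor–target junction and sequenced, and counts were converted to CPM, averaged over replicates, scaled by control-derived factors and reported as log10(CPM+1).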
With “GGGAAGACATGGACCGGTTTTCCCGGTAATCCGTATTTGGT (site GGGAAGACTAC)”, the “recombinant UMI read abundance (log10)” value is 0.836. In the case of “GGGAAGCCATGGACCGGTTTTCCCGGTAATCCGTATTTGTT (site CGGAATCCTAA)” it was 0; in that of “GGGAAGCCATGGACCGGTTTTCCCGGTAATCCGTATTTGTT (site GGGAAGCCTAA)”, 0.0967.

As for “GGGAAGGCATGGACCGGTTTTCCCGGTAATCCGTATTTGCA (site AGGAAGACTTG)”, the “recombinant UMI read abundance (log10)” value worked out at 0. Regarding “GGGAAGGCATGGACCGGTTTTCCCGGTAATCCGTATTTGCA (site GGGAAGGCTTG)”, the “recombinant UMI read abundance (log10)” value was 2.86. As for “GGGAATCCATGGACCGGTTTTCCCGGTAATCCGTATTTGAT (site CGGAATCCTAA)”, the figure is 0; as for “GGGAATCCATGGACCGGTTTTCCCGGTAATCCGTATTTGAT (site GGGAATCCTAT)”, 0.145.

For the sequence “GGGAATCCATGGACCGGTTTTCCCGGTAATCCGTATTTGTT (site AGGAATCCTAA)”, the “recombinant UMI read abundance (log10)” value turned out to be 0. Turning to “GGGAATCCATGGACCGGTTTTCCCGGTAATCCGTATTTGTT (site CGGAATCCTAA)”, the “recombinant UMI read abundance (log10)” value was 0. As for “GGGAATCCATGGACCGGTTTTCCCGGTAATCCGTATTTGTT (site GGGAATCCTAA)”, the “recombinant UMI read abundance (log10)” value was determined as 0.192. As for “GGGAATCCATGGACCGGTTTTCCCGGTAATCCGTATTTGTT (site TGGAATCCTAA)”, the figure is 0.0126.

As for “GGGAATGCATGGACCGGTTTTCCCGGTAATCCGTATTTGGT (site GGGAATGCTAC)”, the “recombinant UMI read abundance (log10)” value is 0.885. In the case of “GGGACACCATGGACCGGTTTTCCCGGTAATCCGTATTTGCA (site GGGACACCTTG)”, the “recombinant UMI read abundance (log10)” value turned out to be 0.

On to “GGGACACCATGGACCGGTTTTCCCGGTAATCCGTATTTGCA (site GGGCCACCTTG)”, for which the “recombinant UMI read abundance (log10)” value stood at 0. As for “GGGACACCATGGACCGGTTTTCCCGGTAATCCGTATTTGCA (site GGGGCACCTTG)”, the “recombinant UMI read abundance (log10)” value worked out at 0. As for “GGGACACCATGGACCGGTTTTCCCGGTAATCCGTATTTGCA (site GGGTCACCTTG)”, the figure is 0; as for “GGGACGTCATGGACCGGTTTTCCCGGTAATCCGTATTTGAC (site GGGACGTCTGT)”, 3.2; as for “GGGACGTCATGGACCGGTTTTCCCGGTAATCCGTATTTGCA (site GGGACGTCTTG)”, 1.99. On to “GGGACGTCATGGACCGGTTTTCCCGGTAATCCGTATTTGGC (site GGGACGTCTGC)”, for which the “recombinant UMI read abundance (log10)” value worked out at 2.43. In the case of “GGGACTACATGGACCGGTTTTCCCGGTAATCCGTATTTGAC (site AGGACTACTGT)” it was 0. In the case of “GGGACTACATGGACCGGTTTTCCCGGTAATCCGTATTTGAC (site CGGACTACTGT)”, the “recombinant UMI read abundance (log10)” value stood at 0. For “GGGACTACATGGACCGGTTTTCCCGGTAATCCGTATTTGAC (site GGGACTACTGT)”, the “recombinant UMI read abundance (log10)” value worked out at 1.48. As for “GGGACTACATGGACCGGTTTTCCCGGTAATCCGTATTTGAC (site TGGACTACTGT)”, the figure is 0. In the case of “GGGACTCCATGGACCGGTTTTCCCGGTAATCCGTATTTGAG (site TACGTATCTTC)” it was 0.0126; in that of “GGGACTCCATGGACCGGTTTTCCCGGTAATCCGTATTTGCG (site GGGACTCCTCG)”, 0.509. In the case of “GGGATAGCATGGACCGGTTTTCCCGGTAATCCGTATTTGTT (site GGGATAGCTAA)” it was 1.85; in that of “GGGCAGGCATGGACCGGTTTTCCCGGTAATCCGTATTTGAG (site GGGCAGGCTCT)”, 1.48. Consider “GGGCAGGCATGGACCGGTTTTCCCGGTAATCCGTATTTGGG (site GGGCAGGCTCC)”, for which the “recombinant UMI read abundance (log10)” value stood at 0.0905. As to “GGGCATACATGGACCGGTTTTCCCGGTAATCCGTATTTGAC (site GGGCATACTGT)”, the “recombinant UMI read abundance (log10)” value was determined as 1.8. As for “GGGCCGTCATGGACCGGTTTTCCCGGTAATCCGTATTTGTA (site GGGCCGTCTTA)”, the figure is 0.733; as for “GGGCGATCATGGACCGGTTTTCCCGGTAATCCGTATTTGGC (site GGGCGATCTGC)”, 1.98; as for “GGGGAGGCATGGACCGGTTTTCCCGGTAATCCGTATTTGAG (site GGGGAGGCTCT)”, 0.897.

As for “GGGGATTCATGGACCGGTTTTCCCGGTAATCCGTATTTGAT (site GGGGATTCTAT)”, the “recombinant UMI read abundance (log10)” value amounted to 1.72.

On to “GGGGCACCATGGACCGGTTTTCCCGGTAATCCGTATTTGCA (site AGGGCACCTTG)”, for which the “recombinant UMI read abundance (log10)” value amounted to 0. As for “GGGGCACCATGGACCGGTTTTCCCGGTAATCCGTATTTGCA (site CGGGCACCTTG)”, the figure is 0. In the case of “GGGGCACCATGGACCGGTTTTCCCGGTAATCCGTATTTGCA (site GAGGCACCTTG)” it was 0.00459; in that of “GGGGCACCATGGACCGGTTTTCCCGGTAATCCGTATTTGCA (site GCGGCACCTTG)”, 0; in that of “GGGGCACCATGGACCGGTTTTCCCGGTAATCCGTATTTGCA (site GGAGCACCTTG)”, 0. In the case of “GGGGCACCATGGACCGGTTTTCCCGGTAATCCGTATTTGCA (site GGCGCACCTTG)” it was 0. As for “GGGGCACCATGGACCGGTTTTCCCGGTAATCCGTATTTGCA (site GGGACACCTTG)”, the “recombinant UMI read abundance (log10)” value turned out to be 0. In the case of “GGGGCACCATGGACCGGTTTTCCCGGTAATCCGTATTTGCA (site GGGCCACCTTG)”, the “recombinant UMI read abundance (log10)” value turned out to be 0.00389.

On to “GGGGCACCATGGACCGGTTTTCCCGGTAATCCGTATTTGCA (site GGGGAACCTTG)”, for which the “recombinant UMI read abundance (log10)” value was 0. “GGGGCACCATGGACCGGTTTTCCCGGTAATCCGTATTTGCA (site GGGGCAACTTG)”: the “recombinant UMI read abundance (log10)” value amounted to 0. In the case of “GGGGCACCATGGACCGGTTTTCCCGGTAATCCGTATTTGCA (site GGGGCACCTAG)” it was 0.0125; in that of “GGGGCACCATGGACCGGTTTTCCCGGTAATCCGTATTTGCA (site GGGGCACCTCG)”, 0.0103; in that of “GGGGCACCATGGACCGGTTTTCCCGGTAATCCGTATTTGCA (site GGGGCACCTGG)”, 0. In the case of “GGGGCACCATGGACCGGTTTTCCCGGTAATCCGTATTTGCA (site GGGGCACCTTA)”, the “recombinant UMI read abundance (log10)” value is 0.011. As for “GGGGCACCATGGACCGGTTTTCCCGGTAATCCGTATTTGCA (site GGGGCACCTTC)”, the figure is 0.0181; as for “GGGGCACCATGGACCGGTTTTCCCGGTAATCCGTATTTGCA (site GGGGCACCTTG)”, 0; as for “GGGGCACCATGGACCGGTTTTCCCGGTAATCCGTATTTGCA (site GGGGCACCTTT)”, 0.0161. In the case of “GGGGCACCATGGACCGGTTTTCCCGGTAATCCGTATTTGCA (site GGGGCAGCTTG)” it was 0; in that of “GGGGCACCATGGACCGGTTTTCCCGGTAATCCGTATTTGCA (site GGGGCATCTTG)”, 0. As to “GGGGCACCATGGACCGGTTTTCCCGGTAATCCGTATTTGCA (site GGGGCCCCTTG)”, the “recombinant UMI read abundance (log10)” value was found to be 0.0249. For the sequence “GGGGCACCATGGACCGGTTTTCCCGGTAATCCGTATTTGCA (site GGGGCGCCTTG)”, the “recombinant UMI read abundance (log10)” value was 0.0148. For the sequence “GGGGCACCATGGACCGGTTTTCCCGGTAATCCGTATTTGCA (site GGGGCTCCTTG)”, the “recombinant UMI read abundance (log10)” value stood at 0. In the case of “GGGGCACCATGGACCGGTTTTCCCGGTAATCCGTATTTGCA (site GGGGGACCTTG)” it was 0; in that of “GGGGCACCATGGACCGGTTTTCCCGGTAATCCGTATTTGCA (site GGGGTACCTTG)”, 0. In the case of “GGGGCACCATGGACCGGTTTTCCCGGTAATCCGTATTTGCA (site GGGTCACCTTG)” it was 0.0044; in that of “GGGGCACCATGGACCGGTTTTCCCGGTAATCCGTATTTGCA (site GGTGCACCTTG)”, 0. For the sequence “GGGGCACCATGGACCGGTTTTCCCGGTAATCCGTATTTGCA (site GTGGCACCTTG)”, the “recombinant UMI read abundance (log10)” value stood at 0.0102. In the case of “GGGGCACCATGGACCGGTTTTCCCGGTAATCCGTATTTGCA (site TGGGCACCTTG)”, the “recombinant UMI read abundance (log10)” value was 0.00982. As for “GGGTCACCATGGACCGGTTTTCCCGGTAATCCGTATTTGCC (site GGGTCACCTGG)”, the figure is 0; as for “GGTAATCCATGGACCGGTTTTCCCGGTAATCCGTATTTGTT (site CGGAATCCTAA)”, 0.0139; as for “GGTAATCCATGGACCGGTTTTCCCGGTAATCCGTATTTGTT (site GGTAATCCTAA)”, 0.518. Turning to “GGTACACCATGGACCGGTTTTCCCGGTAATCCGTATTTGAC (site AGTACACCTGT)”, the “recombinant UMI read abundance (log10)” value is 0. With “GGTACACCATGGACCGGTTTTCCCGGTAATCCGTATTTGAC (site CGTACACCTGT)”, the “recombinant UMI read abundance (log10)” value worked out at 0. Consider “GGTACACCATGGACCGGTTTTCCCGGTAATCCGTATTTGAC (site GGTACACCTGT)”, for which the “recombinant UMI read abundance (log10)” value came to 0.

Turning to “GGTACACCATGGACCGGTTTTCCCGGTAATCCGTATTTGAC (site TGTACACCTGT)”, the “recombinant UMI read abundance (log10)” value worked out at 0.

These data come from the supplement of paper PMC11208160.
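Further: IS621 bridge recombinase in Escherichia coli cells against a fixed T5 target plasmid.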
